{
  "source": "patent US7790461B2",
  "about": "“Nano-emulsion technology for drug elution” (Medtronic MiniMed, Inc., priority 2007, dated 2010)",
  "key": {"[1]": {"settings": "0.022 mg/mL", "protocol": "To evaluate buffers with different pH, eleven milligrams of Dexamethasone Acetate was dissolved in 500 mL of media (different pH adjusted buffers)."}, "[2]": {"test": "Stability of drug in elution media", "assay_type": "physicochemical", "settings": "length of the study", "description": "The mobile phase preparation and choice of the column were instructed in the Dexamethasone Acetate monograph USP29-NF24. The mobile phase A consisted of pH 4.1 formate buffer and acetonitrile (3:2), and mobile phase B consisted of pH 4.1 formate buffer and acetonitrile (9:1). The chromatographic column (USP L11) used was an Agilent Zorbax SB-Phenyl, 4.6 mm×250 mm, 5 μm. A gradient was used with 1 mL/min flow rate. The run time was about 70 minutes. […] The injection volume for standard and samples was 100 μL."}},
  "data": [
    {"molecule": "CC(=O)OCC(=O)[C@@]1(O)[C@H](C)C[C@H]2[C@@H]3CCC4=CC(=O)C=C[C@]4(C)[C@@]3(F)[C@@H](O)C[C@@]21C", "note": "[Dexamethasone Acetate]", "values": [
      {"measurement": "stability with respect to pH (order)", "setting": "[1]", "value": "pH 3>pH 5≅acetate pH 5.7>water>pH 7>pH 9"},
      {"measurement": "stability in the media", "setting": "[2]", "value": "stable"}
    ]}
  ]
}
